Test results reported in article doi:10.1101/2025.04.23.650324v1 (biorxiv, 2025).
In brackets after ≈: the same amount, converted by molar mass.

Columns and labels:
Assay in all cases: microbe, parasite or virus in culture
[1] = tested on: Acinetobacter baumannii #21; details: 18 h, read-out: ENOblock MIC (mg/L)
[2] = tested on: Acinetobacter baumannii #20; details: 18 h, read-out: ENOblock MIC (mg/L)
[3] = tested on: Acinetobacter baumannii #10; details: 18 h, read-out: ENOblock MIC (mg/L)
[4] = tested on: Acinetobacter baumannii #16; details: 18 h, read-out: ENOblock MIC (mg/L)
[5] = tested on: Acinetobacter baumannii #11; details: 18 h, read-out: ENOblock MIC (mg/L)
[6] = tested on: Acinetobacter baumannii #14; details: 18 h, read-out: ENOblock MIC (mg/L)
[7] = tested on: Acinetobacter baumannii #17; details: 18 h, read-out: ENOblock MIC (mg/L)
[8] = tested on: Acinetobacter baumannii #1; details: 18 h, read-out: ENOblock MIC (mg/L)
[9] = tested on: Acinetobacter baumannii #19; details: 18 h, read-out: ENOblock MIC (mg/L)
[10] = tested on: Acinetobacter baumannii #22; details: 18 h, read-out: ENOblock MIC (mg/L)
[11] = tested on: Klebsiella pneumoniae Kp14; details: KP14, 18 h, read-out: ENOblock MIC (mg/L)
[12] = tested on: Klebsiella pneumoniae Kp10; details: KP10, 18 h, read-out: ENOblock MIC (mg/L)
[13] = tested on: Klebsiella pneumoniae Kp11; details: KP11, 18 h, read-out: ENOblock MIC (mg/L)
[14] = tested on: Klebsiella pneumoniae Kp13; details: KP13, 18 h, read-out: ENOblock MIC (mg/L)
[15] = tested on: Klebsiella pneumoniae Kp8; details: KP8, 18 h, read-out: ENOblock MIC (mg/L)
[16] = tested on: Klebsiella pneumoniae Kp12; details: KP12, 18 h, read-out: ENOblock MIC (mg/L)
[17] = tested on: Klebsiella pneumoniae Kp15; details: KP15, 18 h, read-out: ENOblock MIC (mg/L)
[18] = tested on: Klebsiella pneumoniae Kp9; details: KP9, 18 h, read-out: ENOblock MIC (mg/L)
[19] = tested on: Klebsiella pneumoniae Kp7; details: KP7, 18 h, read-out: ENOblock MIC (mg/L)
[20] = tested on: Klebsiella pneumoniae Kp6; details: KP6, 18 h, read-out: ENOblock MIC (mg/L)
Escherichia coli CRA5 = details: CRA5, 18 h, read-out: ENOblock MIC (mg/L)
Escherichia coli CRA57 = details: CRA57, 18 h, read-out: ENOblock MIC (mg/L)
Escherichia coli CRA20 = details: CRA20, 18 h, read-out: ENOblock MIC (mg/L)
Escherichia coli R6 = details: R6, 18 h, read-out: ENOblock MIC (mg/L)
Escherichia coli CRA32 = details: CRA32, 18 h, read-out: ENOblock MIC (mg/L)
Escherichia coli R5 = details: R5, 18 h, read-out: ENOblock MIC (mg/L)
Escherichia coli CRA17 = details: CRA17, 18 h, read-out: ENOblock MIC (mg/L)
Escherichia coli R2 = details: R2, 18 h, read-out: ENOblock MIC (mg/L)
Escherichia coli CRA7 = details: CRA7, 18 h, read-out: ENOblock MIC (mg/L)
Escherichia coli CRA8 = details: CRA8, 18 h, read-out: ENOblock MIC (mg/L)

NCCOCCOCCNC(=O)Cc1ccc(Nc2nc(NCc3ccc(F)cc3)nc(NCC3CCCCC3)n2)cc1 [ENOblock] was tested, and the MIC [1] was 8 mg/L (≈ 13.5 µM), the MIC [2] was 8 mg/L (≈ 13.5 µM) and the MIC [3] was 16 mg/L (≈ 26.9 µM). It also gave an MIC [4] of 16 mg/L (≈ 26.9 µM), an MIC [5] of 16 mg/L (≈ 26.9 µM) and an MIC [6] of 16 mg/L (≈ 26.9 µM). It also gave an MIC [7] of 16 mg/L (≈ 26.9 µM), an MIC [8] of 16 mg/L (≈ 26.9 µM) and an MIC [9] of 32 mg/L (≈ 53.8 µM). The MIC [10] was 16 mg/L (≈ 26.9 µM), the MIC [11] was 64 mg/L (≈ 108 µM) and the MIC [12] was 32 mg/L (≈ 53.8 µM). For the same molecule, the MIC [13] was 16 mg/L (≈ 26.9 µM), the MIC [14] was 64 mg/L (≈ 108 µM) and the MIC [15] was 64 mg/L (≈ 108 µM). The MIC [16] was 64 mg/L (≈ 108 µM), the MIC [17] was 64 mg/L (≈ 108 µM) and the MIC [18] was 64 mg/L (≈ 108 µM). It also gave an MIC [19] of 16 mg/L (≈ 26.9 µM), an MIC [20] of 32 mg/L (≈ 53.8 µM) and an MIC (Escherichia coli CRA5) of 16 mg/L (≈ 26.9 µM). The MIC (Escherichia coli CRA57) was 16 mg/L (≈ 26.9 µM), the MIC (Escherichia coli CRA20) was 32 mg/L (≈ 53.8 µM) and the MIC (Escherichia coli R6) was 16 mg/L (≈ 26.9 µM). The MIC (Escherichia coli CRA32) was 8 mg/L (≈ 13.5 µM), the MIC (Escherichia coli R5) was 32 mg/L (≈ 53.8 µM) and the MIC (Escherichia coli CRA17) was 32 mg/L (≈ 53.8 µM). For the same molecule, the MIC (Escherichia coli R2) was 32 mg/L (≈ 53.8 µM), the MIC (Escherichia coli CRA7) was 16 mg/L (≈ 26.9 µM) and the MIC (Escherichia coli CRA8) was 16 mg/L (≈ 26.9 µM).
